Data reported in patent publication US20100028259A1, “USE OF ORGANIC CATION TRANSPORTERS FOR CANCER DIAGNOSIS AND THERAPY” (The Regents of the University of California, priority 2006, published 2010).
Like-named read-outs stand apart in the source and are kept apart here.

System: HEK-MOCK cells
Experiment: MTT drug sensitivity assay in HEK-MOCK cells (control of HEK-hOCT2)
Assay type: cell-based, human
Procedure: Cytotoxicity of the platinum-based compounds was measured by MTT (thiazolyl blue tetrazolium bromide) assay. Cells were seeded in 100 μl of the culture medium without any antibiotics in 96-well plates at a predetermined cell density. For HEK 293 cells, poly-D-lysine coated plates were used. After overnight incubation, the platinum-based compounds were then added to the culture medium to give the indicated final concentrations. For the OCT inhibitor studies, the inhibitors (i.e., disopyramide or cimetidine) were added to the medium at a specified concentration immediately before the addition of the platinum-based compounds. After incubation for a specified time period, the drug-containing medium was replaced with fresh, drug-free medium and the incubation was continued for a total of 72 hours (start from the addition of platinum-based compounds). Then, the MTT assay was performed similarly as described in Alley et al., Cancer Res., 48:589-601 (1988). […] The maximal cell growth was the cell growth in the medium without any platinum-based compounds; C is the concentration of the platinum-based compound, and γ is the slope factor.
Briefly, the cells were seeded in 96-well plates at a density of 5,000 cells/well for the transfected MDCK cells or 12,000 cells/well for the transfected HEK 293 cells. The platinum-based drugs were added on the following day. After the specified time periods of drug exposure, the drug-containing medium was replaced with fresh, drug-free medium, and the incubation was continued for a total of 72 hours (start from the time when the drug was added). After incubation, the cell growth was determined by an MTT assay. Data are expressed as mean±SD from 3 to 6 independent experiments with each performed in quadruplicate. The resistance factor (RF) was defined as the ratio of the mean IC50 value in the MOCK cells to that in the OCT-transfected cells.

`O=C1[O][Pt]2([NH][C@@H]3CCCC[C@H]3[NH]2)[O]C1=O` [oxaliplatin] was tested, and the IC50 (co-incubation with cimetidine 1.5 mM, read-out: IC50 in HEK-MOCK, cimetidine-treated) was 9500 ± 2950 nM, the IC50 (drug exposure 7 hour, Table 2, read-out: IC50 HEK-MOCK) was 2990 ± 1510 nM and the IC50 (drug exposure 24 hour, Table 2, read-out: IC50 HEK-MOCK) was 1500 ± 690 nM. It also gave an IC50 (drug exposure 72 hour, Table 2, read-out: IC50 HEK-MOCK) of 930 ± 56 nM.
